Assay: Agilent ZORBAX 300 SB-C18, 150 × 1 mm, 3.5 µm; A: water + 0.01% heptafluorobutyric acid; B: acetonitrile + 0.01% heptafluorobutyric acid; gradient (min/%B) 0/0 100/90
Settings: stereoisomer not certain

Question: With `O=c1cnc(-c2ccccc2)c(-c2ccccc2)[nH]1` as the molecule, how does the LC retention time read?
Answer: 11.1 min

Question: For `Cc1[nH]c(C)c(C=O)c1C=O`, which LC retention time is on record?
Answer: 7.42 min

Question: Which LC retention time does the source give for `CC(=O)Nc1cc(NC(C)=O)c(C)c(C(=O)O)c1` here?
Answer: 6.32 min

Question: For `CCNCC(=O)Nc1c(C)cccc1C`, which LC retention time is on record?
Answer: 8.77 min

Question: Which LC retention time does the source give for `CN1CCN(C(=O)c2cc(C(C)(C)C)cc(C(C)(C)C)c2)CC1` here?
Answer: 11.6 min

Question: With `CCOC(=O)C(C(C)=NNC(=O)c1ccc(NC(C)=O)cc1)C(C)C` (centres undefined) as the molecule, how does the LC retention time read?
Answer: 10.8 min

Question: With `CCOC1COCC1N` (centres undefined) as the molecule, how does the LC retention time read?
Answer: 6.48 min

Question: Which LC retention time does the source give for `CC(Nc1ccc2ccccc2c1)C(=O)NN=Cc1cccc2ccccc12` (centres undefined) here?
Answer: 16.7 min

Question: For `Cc1sc(C)c(CNCC(C)C)c1CNCC(C)C`, which LC retention time is on record?
Answer: 8.93 min

Question: For `CNCCc1ccncc1`, which LC retention time is on record?
Answer: 6.72 min

Question: For `Nc1ccc(C(=O)Nc2cccc3ccccc23)cc1`, which LC retention time is on record?
Answer: 11.1 min

Question: For `Cc1cc2cc(N)ccc2n1C`, which LC retention time is on record?
Answer: 8.33 min

Question: With `CCCCCCCCCCCCC(N)=O` as the molecule, how does the LC retention time read?
Answer: 18.2 min

Question: With `O=C1c2ccccc2C(=O)c2cc(C(=O)N3CCC(c4ccccc4)CC3)ccc21` as the molecule, how does the LC retention time read?
Answer: 17 min

Question: Which LC retention time does the source give for `CN1CCN(c2nc(N)cc(=O)[nH]2)CC1` here?
Answer: 5.8 min

Question: With `Nc1ccc2[nH]ccc2c1` as the molecule, how does the LC retention time read?
Answer: 7.01 min

Question: Which LC retention time does the source give for `CC(=O)NC(C)c1ccc(O)cc1` (centres undefined) here?
Answer: 7.19 min

Question: Which LC retention time does the source give for `CCOC(=O)c1ccc2c(c1)C(=O)N(c1cccc3ccccc13)C2=O` here?
Answer: 16.2 min

Question: With `Oc1ccc2c(c1)C13CCCCC1(O)C(C2)NCC3` (centres undefined) as the molecule, how does the LC retention time read?
Answer: 8.57 min

Question: With `c1coc(CN2CCNCC2)c1` as the molecule, how does the LC retention time read?
Answer: 7.3 min

Question: Which LC retention time does the source give for `CC1(C)CC(NC(=O)c2ccccc2C(=O)NC2CC(C)(C)NC(C)(C)C2)CC(C)(C)N1` here?
Answer: 7.61 min

Question: Which LC retention time does the source give for `CC(C)CN(CC(C)C)CC(C)C` here?
Answer: 9.7 min

Question: Which LC retention time does the source give for `COc1ccc(C=CC(=O)c2ccccc2)cc1OC` here?
Answer: 14.5 min

Question: Which LC retention time does the source give for `CCNC(=S)NNC(=S)NCc1ccccc1` here?
Answer: 10.9 min

Question: Which LC retention time does the source give for `C1=Nc2ccccc2C(c2cccc3ccccc23)C1c1ccc2ccccc2n1` (centres undefined) here?
Answer: 12.9 min

Question: For `CCCCCCC[n+]1ccc(-c2cc[n+](CCCCCCC)cc2)cc1`, which LC retention time is on record?
Answer: 10.5 min

Question: For `O=S(=O)(O)CCN1CCOCC1`, which LC retention time is on record?
Answer: 1.67 min

Question: With `Cc1ccc2[nH]cc(C=O)c2c1` as the molecule, how does the LC retention time read?
Answer: 9.98 min

Question: With `COC(=O)CCC(=O)Nc1ccc(C)cc1C` as the molecule, how does the LC retention time read?
Answer: 11.7 min

Question: Which LC retention time does the source give for `CC(=O)Nc1ccc(O)c(NC(C)=O)c1` here?
Answer: 6.39 min

Question: For `Nc1ncccn1`, which LC retention time is on record?
Answer: 5.83 min

Question: Which LC retention time does the source give for `COC(=O)CCc1c(COC(C)=O)[nH]c(C(=O)OCc2ccccc2)c1C` here?
Answer: 15.1 min

Question: Which LC retention time does the source give for `CNCCCN1c2ccccc2CCc2ccccc21` here?
Answer: 11.5 min

Question: With `CC(=O)NCCOc1ccc(C)cc1` as the molecule, how does the LC retention time read?
Answer: 10.4 min

Question: Which LC retention time does the source give for `CCc1ncc[nH]1` here?
Answer: 6.1 min

Question: Which LC retention time does the source give for `S=C1NCN(CCC2=CCCCC2)CN1` here?
Answer: 10.2 min

Question: With `CC(N)=C1C(=O)C(=O)N(C)C1c1ccccc1` (centres undefined) as the molecule, how does the LC retention time read?
Answer: 8.68 min

Question: For `S=C(Nc1cccnc1)NC1CCCc2ccccc21` (centres undefined), which LC retention time is on record?
Answer: 11 min

Question: For `NCCCCCCCCN`, which LC retention time is on record?
Answer: 7.2 min

Question: With `O=c1nc(NN=Cc2cccnc2)cn[nH]1` as the molecule, how does the LC retention time read?
Answer: 6.94 min

Question: With `CCc1ccc(C=NNC(=O)C[n+]2ccccc2)cc1` as the molecule, how does the LC retention time read?
Answer: 9.72 min

Question: Which LC retention time does the source give for `Cc1ccc(C=NNC(=O)C(=O)NC(C)C)o1` here?
Answer: 9.79 min

Question: With `CC(C)N(C)C(C)(C)C` as the molecule, how does the LC retention time read?
Answer: 7.1 min

Question: For `CCC(C)N1CNc2c(c(=O)[nH]c(=O)n2Cc2ccccc2)C1` (centres undefined), which LC retention time is on record?
Answer: 8.19 min

Question: For `NC1CCOC1=O` (centres undefined), which LC retention time is on record?
Answer: 3.11 min

Question: For `CN(C)c1ccncc1`, which LC retention time is on record?
Answer: 7.29 min

Question: For `CCC(C)n1cc(C=C2NC(=O)NC2=O)c2ccccc21` (centres undefined), which LC retention time is on record?
Answer: 12.7 min

Question: Which LC retention time does the source give for `COCCCN1CCC(CN)C1` (centres undefined) here?
Answer: 7.37 min

Question: With `COc1cc(C=CC(=O)c2ccc(C)cc2)cc(OC)c1OC` as the molecule, how does the LC retention time read?
Answer: 15.9 min

Question: With `CCCOC(=O)CCNc1n[nH]c(=O)[nH]c1=O` as the molecule, how does the LC retention time read?
Answer: 8.44 min

Question: Which LC retention time does the source give for `CCCn1cnc2c1c(=O)n(CCCCC(C)=O)c(=O)n2C` here?
Answer: 10.2 min

Question: For `CN(C)C(=O)c1ccccc1`, which LC retention time is on record?
Answer: 8.98 min

Question: For `CCC(C)C(NC(C)=O)C(=O)O` (centres undefined), which LC retention time is on record?
Answer: 7.75 min

Question: Which LC retention time does the source give for `O=c1[nH]c(=O)n(CCc2ccccc2)c2c1CN(C1CCCC1)CN2` here?
Answer: 8.61 min

Question: With `CCn1c2ccccc2c2cc(C(=O)O)ccc21` as the molecule, how does the LC retention time read?
Answer: 13.5 min

Question: With `CNC(=S)Nc1c(C)cccc1C` as the molecule, how does the LC retention time read?
Answer: 9.89 min

Question: Which LC retention time does the source give for `CCC(C)C(N)C(=O)N1CCCC1C(=O)NC(C(=O)O)C(C)CC` (centres undefined) here?
Answer: 8.56 min

Question: Which LC retention time does the source give for `CN(C)c1ccc(CNC2CC(C)(C)NC(C)(C)C2)cc1` here?
Answer: 8.12 min

Question: With `Nc1cccc(N2CCOCC2)c1` as the molecule, how does the LC retention time read?
Answer: 7.53 min

Question: With `CCOC(=O)c1c(C)n(-c2ccccc2)c2ccc(OC(C)=O)cc12` as the molecule, how does the LC retention time read?
Answer: 17 min

Question: Which LC retention time does the source give for `COc1ccc(N2CCCC2=O)cc1` here?
Answer: 9.78 min

Question: For `Cn1cccc1CC(=O)NN=CC=Cc1ccccc1`, which LC retention time is on record?
Answer: 12.7 min

Question: For `CNCCCn1c(=O)[nH]c2ccccc21`, which LC retention time is on record?
Answer: 7.64 min

Question: With `O=C1C(=Cc2ccco2)C(=O)c2ccccc21` as the molecule, how does the LC retention time read?
Answer: 14 min

Question: Which LC retention time does the source give for `Cc1ccc(-n2ccnc2)cc1` here?
Answer: 8.52 min

Question: With `O=C(Oc1ccccc1)c1cccnc1` as the molecule, how does the LC retention time read?
Answer: 11.9 min

Question: For `CC(CCc1ccc(O)cc1)NCC(O)c1ccc(O)cc1` (centres undefined), which LC retention time is on record?
Answer: 8.93 min

Question: For `CN1Cc2ccccc2CC1C(=O)O` (centres undefined), which LC retention time is on record?
Answer: 6.42 min

Question: For `O=C(Cn1ccc(=O)[nH]c1=O)NCCO`, which LC retention time is on record?
Answer: 2.12 min

Question: Which LC retention time does the source give for `O=C(CC1COc2ccccc2O1)N1CCOCC1` (centres undefined) here?
Answer: 10.5 min

Question: For `CCCCn1c2ccccc2n2cc(C(C)(C)C)nc12`, which LC retention time is on record?
Answer: 12.2 min

Question: With `Nc1ccc2c(c1)SSc1cc(N)ccc1-2` as the molecule, how does the LC retention time read?
Answer: 10.3 min

Question: Which LC retention time does the source give for `COc1ccc(N2CC(C(=O)Nc3c(C)cc(C)cc3C)CC2=O)cc1` (centres undefined) here?
Answer: 12.5 min

Question: For `Cc1cccc(Nc2cc(C)nc3ccccc23)c1`, which LC retention time is on record?
Answer: 10.4 min

Question: With `CCCCC[N+]1(C)CCCC1` as the molecule, how does the LC retention time read?
Answer: 7.4 min

Question: With `COC(=O)CN1CCCC1=O` as the molecule, how does the LC retention time read?
Answer: 6.91 min

Question: Which LC retention time does the source give for `CN(C)CCN` here?
Answer: 6.51 min

Question: With `Cc1cc[n+](CCc2ccccc2)cc1C` as the molecule, how does the LC retention time read?
Answer: 9.48 min

Question: Which LC retention time does the source give for `CC(C)=C(NC(=O)c1ccccc1)C(=O)NCCc1c(C)[nH]c2ccccc12` here?
Answer: 12.3 min

Question: Which LC retention time does the source give for `COc1ccc(NC(=O)c2ccc(C)cc2)c(OC)c1` here?
Answer: 14.2 min

Question: Which LC retention time does the source give for `O=C(c1ccccc1O)N1CCCC1` here?
Answer: 9.29 min

Question: For `Cc1ccc(C=C2CN(C)CC(=Cc3ccc(C)cc3C)C2=O)c(C)c1`, which LC retention time is on record?
Answer: 13.1 min

Question: With `O=C1CC2(CCCC2)CC(=O)N1CCCCN1CCN(c2ncccn2)CC1` as the molecule, how does the LC retention time read?
Answer: 10.2 min

Question: Which LC retention time does the source give for `Cc1ccc(CN)cc1` here?
Answer: 7.92 min

Question: With `c1ccc2[nH]ncc2c1` as the molecule, how does the LC retention time read?
Answer: 9.07 min

Question: Which LC retention time does the source give for `CN(C)CCN(C)CCN(C)C` here?
Answer: 6.9 min

Question: With `Cc1cccc[n+]1CC(=O)c1ccccc1` as the molecule, how does the LC retention time read?
Answer: 8.36 min

Question: Which LC retention time does the source give for `CCCNCc1ccc2c(c1)n(C)c(=O)n2C` here?
Answer: 7.81 min

Question: Which LC retention time does the source give for `Nc1ccc2c(c1)nc(-c1ccccc1)c1cc(N)ccc12` here?
Answer: 9.3 min

Question: With `Cc1nn(-c2ccc(C(=O)N3CCN(C)CC3)cc2)c(=O)c2ccccc12` as the molecule, how does the LC retention time read?
Answer: 8.65 min

Question: For `O=C1NC(=O)C(c2ccccc2)(c2ccccc2)N1`, which LC retention time is on record?
Answer: 11 min

Question: Which LC retention time does the source give for `CCCCN(C)C(=O)Cn1c(=O)c2c(C)cc(C)nc2n(-c2ccccc2)c1=O` here?
Answer: 15 min

Question: For `CN(C)Cc1c(N)cc2ccccc2c1-c1ccccc1`, which LC retention time is on record?
Answer: 8.82 min

Question: For `Cc1ccc2nc(C)[nH]c2c1`, which LC retention time is on record?
Answer: 8.32 min
